Biological target: S. aureus GyrB ATPase (Staphylococcus aureus, UniProt P0A0K8)
Test: biochemical
Details: compound at 1 μM; one value per test if tested more than once; read-out: % Inhibition of S. aureus GyrB ATPase
Description: S. aureus GyrB ATPase Inhibition Activity: Compounds may be tested for inhibition of S. aureus GyrB ATPase activity using an ammonium molybdate/malachite green-based phosphate detection assay (Lanzetta, P. A., L. J. Alvarez, P. S. Reinach, and O. A. Candia, 1979, 100: 95-97). Assays can be performed in multiwell plates in 30 μl reactions containing: 50 mM Hepes buffer pH 7.5, 75 mM ammonium acetate, 8.0 mM magnesium chloride, 0.5 mM ethylenediaminetetraacetic acid, 5% glycerol, 1.0 mM 1,4-Dithio-DL-threitol, 200 nM bovine serum albumin, 1.0 μg/m1 sheared salmon sperm DNA, 250 pM E. coli GyrA, 250 pM S. aureus GyrB, 250 μM ATP, and compound in dimethylsulfoxide. Reactions can be quenched with 30 μl of ammonium molybdate/malachite green detection reagent containing 1.2 mM malachite green hydrochloride, 8.5 mM ammonium molybdate tetrahydrate, and 1 M hydrochloric acid. […] An IC50 measurement of compound potency for each compound can be determined from reactions performed in the presence of 10 different compound concentrations.

S. aureus GyrB ATPase, sequence (P0A0K8 whole entry): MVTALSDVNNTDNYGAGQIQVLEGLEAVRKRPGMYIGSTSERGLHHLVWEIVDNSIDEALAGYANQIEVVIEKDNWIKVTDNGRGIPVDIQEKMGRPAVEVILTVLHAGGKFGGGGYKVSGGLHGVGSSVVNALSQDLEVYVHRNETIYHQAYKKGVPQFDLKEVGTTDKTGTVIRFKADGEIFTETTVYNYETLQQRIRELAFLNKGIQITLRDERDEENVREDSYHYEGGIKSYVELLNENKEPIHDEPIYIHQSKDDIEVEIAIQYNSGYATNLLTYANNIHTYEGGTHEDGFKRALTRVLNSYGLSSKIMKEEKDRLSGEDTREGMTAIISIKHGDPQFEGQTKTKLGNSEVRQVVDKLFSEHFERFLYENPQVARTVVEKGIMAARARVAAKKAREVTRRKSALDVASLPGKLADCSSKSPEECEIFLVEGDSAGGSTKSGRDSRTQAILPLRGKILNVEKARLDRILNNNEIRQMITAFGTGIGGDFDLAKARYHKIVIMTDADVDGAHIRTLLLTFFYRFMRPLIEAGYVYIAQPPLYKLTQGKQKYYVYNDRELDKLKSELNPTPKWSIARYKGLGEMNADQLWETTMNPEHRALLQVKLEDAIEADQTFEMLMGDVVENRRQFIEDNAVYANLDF
S. aureus GyrB ATPase, sequence (P0AES4 whole entry, further chain): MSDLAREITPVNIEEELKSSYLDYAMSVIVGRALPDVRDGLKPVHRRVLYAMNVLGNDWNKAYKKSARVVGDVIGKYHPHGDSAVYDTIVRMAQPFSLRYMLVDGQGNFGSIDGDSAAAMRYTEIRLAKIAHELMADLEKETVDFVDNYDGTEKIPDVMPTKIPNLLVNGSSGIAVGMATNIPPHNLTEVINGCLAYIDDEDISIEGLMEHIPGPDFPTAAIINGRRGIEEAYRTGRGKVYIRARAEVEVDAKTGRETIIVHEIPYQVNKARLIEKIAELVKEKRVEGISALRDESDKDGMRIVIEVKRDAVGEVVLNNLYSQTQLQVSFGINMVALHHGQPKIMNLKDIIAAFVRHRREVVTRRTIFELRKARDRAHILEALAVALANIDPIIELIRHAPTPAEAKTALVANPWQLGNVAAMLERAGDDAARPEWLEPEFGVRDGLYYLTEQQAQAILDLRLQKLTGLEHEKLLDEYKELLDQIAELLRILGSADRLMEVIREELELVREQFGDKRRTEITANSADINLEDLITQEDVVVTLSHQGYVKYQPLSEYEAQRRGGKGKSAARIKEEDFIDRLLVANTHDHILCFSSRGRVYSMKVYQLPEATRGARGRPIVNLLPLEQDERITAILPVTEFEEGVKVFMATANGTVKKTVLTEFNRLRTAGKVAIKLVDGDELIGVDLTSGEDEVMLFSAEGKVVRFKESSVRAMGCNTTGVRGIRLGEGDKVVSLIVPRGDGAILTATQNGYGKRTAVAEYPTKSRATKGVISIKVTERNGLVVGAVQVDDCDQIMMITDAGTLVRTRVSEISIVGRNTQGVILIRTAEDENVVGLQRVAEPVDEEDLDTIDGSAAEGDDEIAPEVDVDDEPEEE

Structure (SMILES) | inhibition at 1 µM [%]
CCNC(=O)Nc1cc(-c2nc(CC)cs2)c(-c2cc3c4c(c2)c(=O)c(C(=O)NC)cn4CCO3)cn1 [Example 38, 9-(4-(4-ethylthiazol-2-yl)-6-(3-ethylureido)pyridin-3-yl)-N-methyl-7-oxo-3,7-dihydro-2H-[1,4]oxazino[2,3,4-ij]quinoline-6-carboxamide] | 99
CCCNC(=O)Nc1cc(-c2nc(C(F)(F)F)cs2)c(-c2ccc3c(c2)c(=O)c(C(=O)O)cn3CCN2CCOCC2)cn1 [Example 193, 1-(2-morpholinoethyl)-4-oxo-6-(6-(3-propylureido)-4-(4-(trifluoromethyl)thiazol-2-yl)pyridin-3-yl)-1,4-dihydroquinoline-3-carboxylic acid] | 93
CCNC(=O)Nc1cc(-c2nc(C(F)(F)F)cs2)c(-c2ccc3c(=O)c(C(=O)NCCN4CCN(C)CC4)cn(CC)c3c2)cn1 [Example 334, 1-Ethyl-7-{6-[(ethylcarbamoyl)amino]-4-[4-(trifluoromethyl)-1,3-thiazol-2-yl]pyridin-3-yl}-N-[2-(4-methylpiperazin-1-yl)ethyl]-4-oxo-1,4-dihydroquinoline-3-carboxamide] | 95
CCNC(=O)Nc1cc(-c2nc(C(F)(F)F)cs2)c(-c2ccc3c(=O)c(C(=O)NCCO)cn(CC4CC4)c3c2)cn1 [Example 375, 1-(Cyclopropylmethyl)-7-{6-[(ethylcarbamoyl)amino]-4-[4-(trifluoromethyl)-1,3-thiazol-2-yl]pyridin-3-yl}-N-(2-hydroxyethyl)-4-oxo-1,4-dihydroquinoline-3-carboxamide] | 99
CCNC(=O)Nc1cc(-c2nc(C(F)(F)F)cs2)c(-c2ccc3c(c2)c(=O)c(C(=O)O)cn3[C@@H]2CCCN(CCS(C)(=O)=O)C2)cn1 [Example 281, (R)-ethyl 6-(6-(3-ethylureido)-4-(4-(trifluoromethyl)thiazol-2-yl)pyridin-3-yl)-1-(1-(2-(methylsulfonyl)ethyl)piperidin-3-yl)-4-oxo-1,4-dihydroquinoline-3-carboxylic acid] | 106
CCNC(=O)Nc1cc(-c2nc(C(F)(F)F)cs2)c(-c2ccc3c(c2)c(=O)c(C(=O)NC)cn3[C@H](CO)CC(C)C)cn1 [Example 96, (S)-6-(6-(3-ethylureido)-4-(4-(trifluoromethyl)thiazol-2-yl)pyridin-3-yl)-1-(1-hydroxy-4-methylpentan-2-yl)-N-methyl-4-oxo-1,4-dihydroquinoline-3-carboxamide] | 95
CCNC(=O)Nc1cc(-c2nc(C(F)(F)F)cs2)c(-c2ccc3c(c2)c(=O)c(C(=O)O)cn3C[C@@H]2CCCN(C)C2)cn1 [Example 247, (R)-6-(6-(3-ethylureido)-4-(4-(trifluoromethyl)thiazol-2-yl)pyridin-3-yl)-1-((1-methylpiperidin-3-yl)methyl)-4-oxo-1,4-dihydroquinoline-3-carboxylic acid] | 115
CCNC(=O)Nc1cc(-c2nc(C(F)(F)F)cs2)c(-c2ccc3c(=O)c(C(=O)NCCN(C)C)cn(CCO)c3c2)cn1 [Example 366, N-[2-(dimethylamino)ethyl]-7-{6-[(ethylcarbamoyl)amino]-4-[4-(trifluoromethyl)-1,3-thiazol-2-yl]pyridin-3-yl}-1-(2-hydroxyethyl)-4-oxo-1,4-dihydroquinoline-3-carboxamide] | 99
CCNC(=O)Nc1cc(-c2nc(C(F)(F)F)cs2)c(-c2ccc3c(c2)c(=O)c(C(=O)O)cn3CCC2CCN(C)CC2)cn1 [Example 89, 6-(6-(3-ethylureido)-4-(4-(trifluoromethyl)thiazol-2-yl)pyridin-3-yl)-1-(2-(1-methylpiperidin-4-yl)ethyl)-4-oxo-1,4-dihydroquinoline-3-carboxylic acid] | 91
CCNC(=O)Nc1cc(-c2nc(C(F)(F)F)cs2)c(-c2ccc3c(c2)c(=O)c(C(=O)O)cn3C[C@@H]2CCN(CCN3CCOCC3)C2)cn1 [Example 237, (R)-6-(6-(3-ethylureido)-4-(4-(trifluoromethyl)thiazol-2-yl)pyridin-3-yl)-1-((1-(2-morpholinoethyl)pyrrolidin-3-yl)methyl)-4-oxo-1,4-dihydroquinoline-3-carboxylic acid] | 103
CCCNC(=O)Nc1cc(-c2nc(C(F)(F)F)cs2)c(-c2ccc3c(c2)c(=O)c(C(=O)O)cn3CCC2CCN(C)CC2)cn1 [Example 198, 1-(2-(1-methylpiperidin-4-yl)ethyl)-4-oxo-6-(6-(3-propylureido)-4-(4-(trifluoromethyl)thiazol-2-yl)pyridin-3-yl)-1,4-dihydroquinoline-3-carboxylic acid] | 108
CCNC(=O)Nc1cc(-c2nc(C(F)(F)F)cs2)c(-c2ccc3c(=O)c(C(=O)NCCN(C)C)cn(CCOC)c3c2)cn1 [Example 372, N-[2-(dimethylamino)ethyl]-7-{6-[(ethylcarbamoyl)amino]-4-[4-(trifluoromethyl)-1,3-thiazol-2-yl]pyridin-3-yl}-1-(2-methoxyethyl)-4-oxo-1,4-dihydroquinoline-3-carboxamide] | 98
CCCNC(=O)Nc1cc(-c2nc(C(F)(F)F)cs2)c(-c2ccc3c(c2)c(=O)c(C(=O)N2CCN(C(C)=O)CC2)cn3CCN(C)C)cn1 [Example 160, 1-(5-(3-(4-acetylpiperazine-1-carbonyl)-1-(2-(dimethylamino)ethyl)-4-oxo-1,4-dihydroquinolin-6-yl)-4-(4-(trifluoromethyl)thiazol-2-yl)pyridin-2-yl)-3-propylurea] | 103
CCNC(=O)Nc1cc(-c2nc(C(F)(F)F)cs2)c(-c2ccc3c(=O)c(C(=O)NCCCO)cn(CCOC)c3c2)cn1 [Example 371, 7-{6-[(Ethylcarbamoyl)amino]-4-[4-(trifluoromethyl)-1,3-thiazol-2-yl]pyridin-3-yl}-N-(3-hydroxypropyl)-1-(2-methoxyethyl)-4-oxo-1,4-dihydroquinoline-3-carboxamide] | 98
CCNC(=O)Nc1cc(-c2nc(C(F)(F)F)cs2)c(-c2ccc3c(c2)c(=O)c(C(=O)NC(COC)COC)cn3C2CC2)cn1 [Example 327, 1-Cyclopropyl-N-(1,3-dimethoxy-propan-2-yl)-6-(6-(3-ethylureido)-4-(4-(trifluoromethyl)thiazol-2-yl)pyridin-3-yl)-4-oxo-1,4-dihydroquinoline-3-carboxamide] | 100
CCNC(=O)Nc1cc(-c2nc(C(F)(F)F)cs2)c(-c2ccc3c(c2)c(=O)c(C(=O)O)cn3[C@@H](CO)C(C)(C)C)cn1 [Example 76, (R)-6-(6-(3-ethylureido)-4-(4-(trifluoromethyl)thiazol-2-yl)pyridin-3-yl)-1-(1-hydroxy-3,3-dimethylbutan-2-yl)-4-oxo-1,4-dihydroquinoline-3-carboxylic acid] | 110
CCNC(=O)Nc1cc(-c2nc(C(F)(F)F)cs2)c(-c2ccc3c(c2)c(=O)c(C(=O)N2CCNCC2)cn3CCN(C)C)cn1 [Example 158, 1-(5-(1-(2-(dimethylamino)ethyl)-4-oxo-3-(piperazine-1-carbonyl)-1,4-dihydroquinolin-6-yl)-4-(4-(trifluoromethyl)thiazol-2-yl)pyridin-2-yl)-3-ethylurea] | 106
CCNC(=O)Nc1cc(-c2nc(C(F)(F)F)cs2)c(-c2ccc3c(c2)c(=O)c(C(=O)O)cn3C[C@H]2CCN(CCN3CCOCC3)C2)cn1 [Example 238, (S)-6-(6-(3-ethylureido)-4-(4-(trifluoromethyl)thiazol-2-yl)pyridin-3-yl)-1-((1-(2-morpholinoethyl)pyrrolidin-3-yl)methyl)-4-oxo-1,4-dihydroquinoline-3-carboxylic acid] | 97
CCNC(=O)Nc1cc(-c2nc(C(F)(F)F)cs2)c(-c2ccc3c(c2)c(=O)c(C(=O)O)cn3Cc2ccncc2)cn1 [Example 124, 6-(6-(3-ethylureido)-4-(4-(trifluoromethyl)thiazol-2-yl)pyridin-3-yl)-4-oxo-1-(pyridin-4-ylmethyl)-1,4-dihydroquinoline-3-carboxylic acid] | 87
CCNC(=O)Nc1cc(-c2nc(C(F)(F)F)cs2)c(-c2ccc3c(=O)c(C(=O)O)cn(CCO)c3c2)cn1 [Example 30, 7-{6-[(ethylcarbamoyl)amino]-4-[4-(trifluoromethyl)-1,3-thiazol-2-yl]pyridin-3-yl}-1-(2-hydroxyethyl)-4-oxo-1,4-dihydroquinoline-3-carboxylic acid] | 95
CCNC(=O)Nc1cc(-c2nc(C(F)(F)F)cs2)c(-c2cc3c4c(c2)c(=O)c(C(=O)O)cn4CCO3)cn1 [Example 11, 9-(6-(3-ethylureido)-4-(4-trifluoromethylthiazol-2-yl)pyridin-3-yl)-7-oxo-3,7-dihydro-2H-[1,4]oxazino[2,3,4-ij]quinoline-6-carboxylic acid] | 102
CCNC(=O)Nc1cc(-c2nc(C(F)(F)F)cs2)c(-c2ccc3c(c2)c(=O)c(C(=O)O)cn3CC(C)N(C)C)cn1 (centres unmarked) [Example 277, 1-(2-(dimethylamino)propyl)-6-(6-(3-ethylureido)-4-(4-(trifluoromethyl)thiazol-2-yl)pyridin-3-yl)-4-oxo-1,4-dihydroquinoline-3-carboxylic acid] | 103
CCNC(=O)Nc1cc(-c2nc(C(F)(F)F)cs2)c(-c2ccc3c(c2)c(=O)c(C(=O)O)cn3[C@H]2CCN(C)C2)cn1 [Example 312, (S)-6-(6-(3-ethylureido)-4-(4-(trifluoromethyl)thiazol-2-yl)pyridin-3-yl)-1-(1-methylpyrrolidin-3-yl)-4-oxo-1,4-dihydroquinoline-3-carboxylic acid] | 105
